{"source": "patent US20050245527A1", "about": "“Nitrogen containing heterocyclic compounds and medicines containing the same” (priority 2002, published 2005)", "key": {"anesthetized dogs": {"test_system": "anesthetized dogs", "test": "Evaluation of cardiovascular dynamics and electrocardiogram in anesthetized dogs", "type": "in vivo, dog", "conditions": "single administration; for HR / LVdP/dt / PQ interval / QTc interval / mAP / QRS interval: percent change vs value prior to administration; for effects on the cardiovascular system: summary of Tables 4 to 8", "excerpt": "<Evaluation of Cardiovascular Dynamics and Electrocardiogram in Anesthetized Dogs> Method Anesthetized dogs were used for the experiment. After isolating the […], a microchip pressure transducer catheter was inserted therein, and the tip was situated near the aortic orifice and in the left ventricle, for measurement of the arterial pressure (AP) and left ventricular pressure (LVP). The LVP was differentiated using a differentiation unit, and the maximum value of the first derivative of the left ventricular pressure ([…] used as the index of the […] contractility. The heart rate (HR) was measured using an instantaneous heart rate counter, with the LVP waveforms as the trigger. A needle electrode was fixed to the right anterior limb and left and right posterior limbs, and a standard II-lead electrocardiogram was taken. The parameters were recorded on a recording sheet. The test substance was administered through the venous catheter inserted in the femoral vein. Administration of Test Substance and Recording Single Administration: The test substance was administered through the catheter for 1 minute. The electrocardiogram was recorded at 2 minutes after administration, and the change in the cardiovascular dynamic was recorded continuously for 10 minutes after the administration. After 10 minutes, the dose was increased and the recording was repeated. Continuous Intravenous Infusion: The test substance was administered through the catheter for a period of one minute, and then a sustained dose was administered by continuous intravenous infusion. The electrocardiogram was recorded at the 5 and 10 minute points, and the change in cardiovascular dynamic was recorded continuously for 10 minutes from the start of administration. After 10 minutes, the dose was increased and the recording was repeated. Analysis The HR, mean arterial pressure (mAP), LVdP/dtmax and electrocardiogram parameters (RR interval, PQ interval, QRS interval, QT interval) were read from the recording sheet. The QT interval was heart rate-corrected and represented as the QTc interval."}, "[1]": {"test_system": "left saphenous nerve of rats (ectopic firing)", "test": "Inhibition of ectopic firing", "type": "in vivo", "conditions": "Rattus norvegicus, iv; rats with cut left saphenous nerve, urethane anesthesia, compound via catheter in right cervical vein, number of firings in 10 seconds; read-out: Inhibition of ectopic firing (ID50)", "method_in_brief": "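Rat left saphenous nerve transected near the knee (~3 mm excised); recorded more than a week later under urethane (1 g/kg) anesthesia. Compound given via right cervical vein catheter. Ectopic firing recorded with platinum hook electrode, scored as number of firings in 10 seconds.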"}}}
{"smiles": "CCN(CC)CCCN(c1ccccc1)C1Cc2ccccc2C1", "note": "[Aprindine]", "values": [{"measurement": "HR", "setting": "anesthetized dogs; dose 2 mg/kg weight", "value": "−12.8", "unit": "%"}, {"measurement": "LVdP/dt", "setting": "anesthetized dogs; dose 2 mg/kg weight", "value": "−29", "unit": "%"}, {"measurement": "PQ interval", "setting": "anesthetized dogs; dose 2 mg/kg weight", "value": 14.2, "unit": "%"}, {"measurement": "QTc interval", "setting": "anesthetized dogs; dose 2 mg/kg weight", "value": 4.5, "unit": "%"}, {"measurement": "mAP", "setting": "anesthetized dogs; dose 2 mg/kg weight", "value": "−34.7", "unit": "%"}, {"measurement": "HR", "setting": "anesthetized dogs; dose 4 mg/kg weight", "value": "−19.2", "unit": "%"}, {"measurement": "LVdP/dt", "setting": "anesthetized dogs; dose 4 mg/kg weight", "value": "−47.5", "unit": "%"}, {"measurement": "QTc interval", "setting": "anesthetized dogs; dose 4 mg/kg weight", "value": "−0.4", "unit": "%"}, {"measurement": "PQ interval", "setting": "anesthetized dogs", "value": 36.8, "unit": "%"}, {"measurement": "mAP", "setting": "anesthetized dogs", "value": "−47.7", "unit": "%"}, {"measurement": "effects on the cardiovascular system", "setting": "anesthetized dogs", "value": "exhibited effects on the cardiovascular system"}]}
{"smiles": "O=C(NCC1CCCCN1)c1cc(OCC(F)(F)F)ccc1OCC(F)(F)F", "note": "(stereo not shown) [Flecainide]", "values": [{"measurement": "HR", "setting": "anesthetized dogs; dose 1 mg/kg weight", "value": "−8.6", "unit": "%"}, {"measurement": "LVdP/dt", "setting": "anesthetized dogs; dose 1 mg/kg weight", "value": "−18.2", "unit": "%"}, {"measurement": "PQ interval", "setting": "anesthetized dogs; dose 1 mg/kg weight", "value": 8.8, "unit": "%"}, {"measurement": "QRS interval", "setting": "anesthetized dogs; dose 1 mg/kg weight", "value": 6.4, "unit": "%"}, {"measurement": "QTc interval", "setting": "anesthetized dogs; dose 1 mg/kg weight", "value": 2.3, "unit": "%"}, {"measurement": "mAP", "setting": "anesthetized dogs; dose 1 mg/kg weight", "value": "−14.2", "unit": "%"}, {"measurement": "HR", "setting": "anesthetized dogs; dose 3 mg/kg weight", "value": "−24.8", "unit": "%"}, {"measurement": "LVdP/dt", "setting": "anesthetized dogs; dose 3 mg/kg weight", "value": "−56.9", "unit": "%"}, {"measurement": "PQ interval", "setting": "anesthetized dogs; dose 3 mg/kg weight", "value": 36.1, "unit": "%"}, {"measurement": "QRS interval", "setting": "anesthetized dogs; dose 3 mg/kg weight", "value": 37.1, "unit": "%"}, {"measurement": "QTc interval", "setting": "anesthetized dogs; dose 3 mg/kg weight", "value": 9.3, "unit": "%"}, {"measurement": "mAP", "setting": "anesthetized dogs; dose 3 mg/kg weight", "value": "−42.9", "unit": "%"}, {"measurement": "effects on the cardiovascular system", "setting": "anesthetized dogs", "value": "exhibited effects on the cardiovascular system"}]}
{"smiles": "Cc1cccc(C)c1OCC(C)N", "note": "(stereo not shown) [Mexiletine]", "values": [{"measurement": "ED50", "setting": "[1]", "value": "1 to 3", "unit": "mg/kg"}, {"measurement": "HR", "setting": "anesthetized dogs; dose 2.2 mg/kg weight", "value": "−2.8", "unit": "%"}, {"measurement": "LVdP/dt", "setting": "anesthetized dogs; dose 2.2 mg/kg weight", "value": "−20.8", "unit": "%"}, {"measurement": "PQ interval", "setting": "anesthetized dogs; dose 2.2 mg/kg weight", "value": 0.7, "unit": "%"}, {"measurement": "QRS interval", "setting": "anesthetized dogs; dose 2.2 mg/kg weight", "value": 1.8, "unit": "%"}, {"measurement": "QTc interval", "setting": "anesthetized dogs; dose 2.2 mg/kg weight", "value": "−3.0", "unit": "%"}, {"measurement": "mAP", "setting": "anesthetized dogs; dose 2.2 mg/kg weight", "value": "−6.2", "unit": "%"}, {"measurement": "HR", "setting": "anesthetized dogs; dose 6.6 mg/kg weight", "value": "−10.6", "unit": "%"}, {"measurement": "LVdP/dt", "setting": "anesthetized dogs; dose 6.6 mg/kg weight", "value": "−47.8", "unit": "%"}, {"measurement": "PQ interval", "setting": "anesthetized dogs; dose 6.6 mg/kg weight", "value": 3.4, "unit": "%"}, {"measurement": "QRS interval", "setting": "anesthetized dogs; dose 6.6 mg/kg weight", "value": 6.3, "unit": "%"}, {"measurement": "QTc interval", "setting": "anesthetized dogs; dose 6.6 mg/kg weight", "value": "−4.6", "unit": "%"}, {"measurement": "mAP", "setting": "anesthetized dogs; dose 6.6 mg/kg weight", "value": "−44.2", "unit": "%"}, {"measurement": "effects on the cardiovascular system", "setting": "anesthetized dogs", "value": "exhibited effects on the cardiovascular system"}]}
{"smiles": "Cc1cccc(C)c1NC(=O)CC12CCCN1CCC2", "note": "[Pilsicainide]", "values": [{"measurement": "HR", "setting": "anesthetized dogs; dose 1 mg/kg weight", "value": "−1.0", "unit": "%"}, {"measurement": "LVdP/dt", "setting": "anesthetized dogs; dose 1 mg/kg weight", "value": "−20.6", "unit": "%"}, {"measurement": "PQ interval", "setting": "anesthetized dogs; dose 1 mg/kg weight", "value": 17.4, "unit": "%"}, {"measurement": "QTc interval", "setting": "anesthetized dogs; dose 1 mg/kg weight", "value": 4.6, "unit": "%"}, {"measurement": "mAP", "setting": "anesthetized dogs; dose 1 mg/kg weight", "value": "−3.2", "unit": "%"}, {"measurement": "HR", "setting": "anesthetized dogs; dose 3 mg/kg weight", "value": "−5.0", "unit": "%"}, {"measurement": "LVdP/dt", "setting": "anesthetized dogs; dose 3 mg/kg weight", "value": "−31.7", "unit": "%"}, {"measurement": "PQ interval", "setting": "anesthetized dogs; dose 3 mg/kg weight", "value": 55.1, "unit": "%"}, {"measurement": "QTc interval", "setting": "anesthetized dogs; dose 3 mg/kg weight", "value": 5.3, "unit": "%"}, {"measurement": "mAP", "setting": "anesthetized dogs; dose 3 mg/kg weight", "value": "−8.2", "unit": "%"}, {"measurement": "effects on the cardiovascular system", "setting": "anesthetized dogs", "value": "exhibited effects on the cardiovascular system"}]}
